Assay results published in PMC8111447 (Frontiers in Pharmacology, 2021).
Where two headings read alike, the source gives them in different places.

What was measured:
[1] = design: method as in earlier work; conditions: main metabolites of osimertinib, ref Cheng et al., 2016, Dickinson et al., Vishwanathan et al., 2019; cited from earlier work
EGFR T790M = system: EGFR T790M; design: method as in Cross et al., 2014; conditions: ref Cross et al., 2014; cited from earlier work
H3255 (EGFR^L858R) = assay: Cell proliferation assay (CTG, 72 h); format: cell-based, human; conditions: Homo sapiens, NCI-H3255; H3255 cells, 72 h; mean ± SD, n = 3
Experimental: (§1) Human lung cancer cell lines (NCI-H1975, H3255 and A431) were obtained from the American Type Culture Collection (ATCC), while PC-9 cell line was supplied by the European Collection of Authenticated Cell Cultures (ECACC). For in vivo implantation, NCI-H1975, H3255 and PC-9 cells were cultured in RPMI1640 (Invitrogen) supplemented with 10% v/v fetal calf serum (Sigma-Aldrich) and 2 mmol/L L-glutamine (Invitrogen). A431 cells were cultured in DMEM (Invitrogen) supplemented with 10% v/v fetal calf serum and 2 mmol/L v/v L-glutamine. All cell lines were then cultured in a humidified incubator with 5% CO2 at 37°C.
(§2) Test compounds were dissolved in DMSO as a 10 mmol/L stock solution. The initial concentration of compounds were 10 μmol/L and the 3-fold dilution was nine times. […] Plate was shaked for 2 min and the mixture was incubated at room temperature for 10 min.
(§3) The half-maximal inhibition concentration (IC50) values were processed by GraphPad Prism7 (GraphPad Software; La Jolla, CA).

PC-9 (EGFR^d746–750) = assay: Cell proliferation assay (CTG, 72 h); format: cell-based, human; conditions: Homo sapiens; PC-9 cells, 72 h; mean ± SD, n = 3
Experimental: as §1, §2, §3

[2] = system: NCI-H1975 (EGFR^L858R/T790M); assay: Cell proliferation assay (CTG, 72 h); format: cell-based; conditions: Homo sapiens, NCI-H1975 cells, mean ± SD, n = 3
Experimental: as §1, §2, §3

A431 (EGFR^WT) = assay: Cell proliferation assay (CTG, 72 h); format: cell-based; conditions: Homo sapiens, A-431, A431 cells, mean ± SD, n = 3
Experimental: as §1, §2, §3

NSCLC patients = conditions: cited from earlier work
[3] = system: A431 (wild-type EGFR) tumor xenografts; assay: A431 xenograft model; format: in vivo, Nu/Nu nude mice; conditions: 30 mg/kg
Experimental: The female Nu/Nu nude mice were purchased from Beijing Vital River Laboratories. […] Nu/Nu nude mice were purchased from the Beijing Vital River Laboratories of China. The 6–8 weeks old female mice were inoculated subcutaneously at the right flank with approximately 3–5 × 10^6 tumor cells in 0.2 ml of medium. The treatments were started when the tumor size reached approximately 200 mm^3. […] All mice were orally administrated once daily for consecutive 14 days. Mouse body weight, tumor weight and tumor volume (TV) were measured twice per week. TV was then used for the calculation of tumor inhibitory rate and tumor regression rate.

[4] = NSCLC patients with EGFR T790M mutation, ref Jänne et al., 2015, Mok et al., 2017

Q: What does the source list for `C=CC(=O)Nc1cc(Nc2nccc(-c3c[nH]c4ccccc34)n2)c(OC)cc1N(C)CCN(C)C` [AZ5104]?
A: metabolite level relative to the parent drug [1]: about 10%; fold more active on EGFR T790M than osimertinib (EGFR T790M): 8 fold

Q: For `C=CC(=O)Nc1cc(Nc2nccc(-c3cn(C)c4ccccc34)n2)c(OC)cc1N(C)CCNC` [AZ7550], which “metabolite level relative to the parent drug” value [1] is on record?
A: The value was “about 10%”.

Q: Which results are given for `C=CC(=O)Nc1cc(Nc2nccc(-c3cn(C)c4ccccc34)n2)c(OC)cc1N(C)CCN(C)C` [Osimertinib]?
A: IC50 (H3255 (EGFR^L858R)): 0.0178 ± 0.0005 µM; IC50 (PC-9 (EGFR^d746–750)): 0.0142 ± 0.00163 µM; IC50 [2]: […]; IC50 (A431 (EGFR^WT)): […]; ORR (NSCLC patients; [4]): 70%; median PFS (NSCLC patients; [4]): 9.9 months; efficacy compared to the first-line EGFR TKIs (NSCLC patients; advanced NSCLC patients with EGFR mutations, comparator 10.2 months, ref Soria et al., 2018, Ramalingam et al., 2020): 18.9 months; overall survival (NSCLC patients; advanced NSCLC patients with EGFR mutations, comparator group 31.8 months, ref Soria et al., 2018, Ramalingam et al., 2020): 38.6 months; ORR (NSCLC patients; second-line, locally advanced or metastatic NSCLC progressed on prior EGFR TKI, ref Goss et al., 2016, Mok et al., 2017): 70%

Q: For `CN(C)C/C=C/C(=O)Nc1cc2c(Nc3ccc(F)c(Cl)c3)ncnc2cc1O[C@H]1CCOC1` [afatinib, reference compound], which body weight [3] is on record?
A: The body weight was “severe body loss”.
